Patent US12583855B2, “RET selective inhibitor, preparation method therefor and use thereof” (SHOUYAO HOLDINGS (BEIJING) CO., LTD., priority 2019, dated 2026)

Key:
VEGFR2 = VEGFR2 (Homo sapiens, UniProt P35968); test: In vitro enzymatic activity assay on VEGFR2 (HTRF); type: biochemical; conditions: GST-VEGFR2 0.1 nM, ATP 2.5 μM
Method: 3. n Vitro Enzymatic Activity Assay for Compounds on VEGFR2
The compounds were diluted 5-fold with 100% DMSO starting from 1 mM (7 concentrations in total), and 2 μL of each concentration was added to 48 μL of reaction buffer (50 mM HEPES pH 7.5, 0.1 mM Na3VO4, 5 mM MgCl2, 1 mM MnCl2, 1 mM DTT, 0.001% Tween 20, and 100 μg/ml BSA) for dilution and mixing. 2.5 μL of compounds and 5 μL of GST-VEGFR2 (final concentration of 0.1 nM) were added to a 384-well plate (OptiPlate-384, purchased from PerkinElmer), the mixture was mixed by centrifugation, and 2.5 μL of ATP (final concentration of 2.5 μM) and TK Peptide Substrate mixture (final concentration of 1 μM, purchased from Cisbio) were added to start the reaction, with a total reaction volume of 10 μL. The 384-well plate was placed in an incubator and reacted at 23° C. for 1.5 h before the reaction was stopped by the addition of 5 μL of TK Antibody (purchased from Cisbio) and 5 μL of Streptavidin-XL665 (purchased from Cisbio). After further incubation in the incubator for 1 h. fluorescence values (excitation at 320 nm, detecting emitted light at 665 nm and 620 nm, and a ratio of the two as an enzyme activity signal) were read on Envision (purchased from PerkinElmer). The enzymatic activity signal of VEGFR2 was measured at 7 concentrations for each compound and the data were calculated using GraphPad Prism software to obtain the IC50 value for the compound.

RET^WT = molecular target: T1, RET^WT (Homo sapiens, UniProt P07949); test: In vitro enzymatic activity assay on RET^WT (HTRF); type: biochemical; conditions: GST-RET^WT (658-1114 aa) 0.5 nM, ATP 25 μM
T1 construct: GST-RET^WT (658-1114 aa, final concentration of 0.5 nM)
T1 sequence (P07949 658-1114): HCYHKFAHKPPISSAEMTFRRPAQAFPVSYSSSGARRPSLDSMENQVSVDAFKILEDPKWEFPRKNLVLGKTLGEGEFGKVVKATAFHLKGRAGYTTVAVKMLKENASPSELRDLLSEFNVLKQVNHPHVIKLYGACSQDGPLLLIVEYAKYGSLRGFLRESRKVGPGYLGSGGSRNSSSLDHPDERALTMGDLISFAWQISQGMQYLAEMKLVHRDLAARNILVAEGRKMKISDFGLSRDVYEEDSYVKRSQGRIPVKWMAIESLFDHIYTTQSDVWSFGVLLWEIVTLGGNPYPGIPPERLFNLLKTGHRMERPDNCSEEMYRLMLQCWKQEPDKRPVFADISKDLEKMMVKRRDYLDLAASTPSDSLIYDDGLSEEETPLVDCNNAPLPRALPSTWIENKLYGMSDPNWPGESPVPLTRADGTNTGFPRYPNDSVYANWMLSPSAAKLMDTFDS
Method: 1. In Vitro Enzymatic Activity Assay for Compounds on RET^WT
The compounds were diluted 5-fold with 100% DMSO starting from 0.2 mM (7 concentrations in total), and 2 μL of each concentration was added to 48 μL of reaction buffer (50 mM HEPES pH7.5, 0.1 mM Na3VO4, 5 mM MgCl2. 1 mM DTT, 0.001% Tween 20, and 100 μg/ml BSA) for dilution and mixing.
The 384-well plate was placed in an incubator and reacted at 23° C. for 2 h before the reaction was stopped by the addition of 5 μL of TK Antibody (purchased from Cisbio) and 5 μL of Streptavidin-XL665 (purchased from Cisbio). […] The enzymatic activity signal of RET^WT was measured at 7 concentrations for each compound and the data were calculated using GraphPad Prism software to obtain the IC50 value for the compound.

Sequence of VEGFR2 (P35968 20-1356): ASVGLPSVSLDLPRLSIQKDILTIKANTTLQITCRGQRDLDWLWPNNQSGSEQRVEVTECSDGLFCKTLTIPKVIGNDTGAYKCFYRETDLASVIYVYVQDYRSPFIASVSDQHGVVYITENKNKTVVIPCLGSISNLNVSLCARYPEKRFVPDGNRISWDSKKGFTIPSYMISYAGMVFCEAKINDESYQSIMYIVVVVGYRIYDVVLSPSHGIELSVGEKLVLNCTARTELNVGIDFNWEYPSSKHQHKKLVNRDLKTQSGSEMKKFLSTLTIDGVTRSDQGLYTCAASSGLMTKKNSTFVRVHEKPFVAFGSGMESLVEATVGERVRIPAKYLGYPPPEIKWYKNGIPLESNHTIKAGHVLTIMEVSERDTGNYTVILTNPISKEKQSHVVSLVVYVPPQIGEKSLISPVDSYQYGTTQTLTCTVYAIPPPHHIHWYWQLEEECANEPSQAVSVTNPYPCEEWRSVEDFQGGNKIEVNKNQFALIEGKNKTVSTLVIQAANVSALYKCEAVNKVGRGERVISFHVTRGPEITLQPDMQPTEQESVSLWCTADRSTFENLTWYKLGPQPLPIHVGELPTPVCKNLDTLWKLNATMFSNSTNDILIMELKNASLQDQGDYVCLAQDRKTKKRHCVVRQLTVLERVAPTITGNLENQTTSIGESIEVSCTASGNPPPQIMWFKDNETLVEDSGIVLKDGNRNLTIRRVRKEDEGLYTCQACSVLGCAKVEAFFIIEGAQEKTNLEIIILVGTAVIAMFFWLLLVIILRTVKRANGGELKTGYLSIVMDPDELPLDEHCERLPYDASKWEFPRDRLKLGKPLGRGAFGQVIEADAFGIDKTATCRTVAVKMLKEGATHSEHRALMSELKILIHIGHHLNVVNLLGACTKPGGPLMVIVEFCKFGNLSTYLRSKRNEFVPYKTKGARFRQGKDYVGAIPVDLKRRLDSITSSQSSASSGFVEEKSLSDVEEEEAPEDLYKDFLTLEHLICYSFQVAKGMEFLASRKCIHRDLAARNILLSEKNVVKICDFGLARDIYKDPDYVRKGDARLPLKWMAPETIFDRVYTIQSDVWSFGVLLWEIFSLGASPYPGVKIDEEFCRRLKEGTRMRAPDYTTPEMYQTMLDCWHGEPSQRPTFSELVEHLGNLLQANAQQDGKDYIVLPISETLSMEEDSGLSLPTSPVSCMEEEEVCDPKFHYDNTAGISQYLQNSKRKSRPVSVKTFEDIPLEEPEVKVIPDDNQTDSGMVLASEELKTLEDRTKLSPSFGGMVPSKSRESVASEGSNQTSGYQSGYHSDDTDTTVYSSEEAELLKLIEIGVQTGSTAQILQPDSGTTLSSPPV

CSc1ccc(CN2C3CC2CN(c2ccc(-c4cc(OCC(C)(C)O)cn5ncc(C#N)c45)cn2)C3)cn1 [Example 11, 6-(2-hydroxy-2-methylpropoxy)-4-(6-(6-((6-(methylthio)pyridin-3-yl)methyl)-3,6-diazabicyclo[3.1.1]heptan-3-yl)pyridin-3-yl)pyrazolo[1,5-a]pyridine-3-carbonitrile]
IC50 (VEGFR2): 37 nM | IC50 (RET^WT): 1.73 nM

CCSc1ccc(CN2CCN(c3ccc(-c4cc(-c5cnn(C)c5)cn5ncc(C#N)c45)cn3)CC2)cn1 [Example 18, 6-(1-methyl-1Hpyrazol-4-yl)-4(6-(4-((6-(ethylthio)pyridin-3-yl)methyl)piperazin-1-yl)pyridin-3-yl)pyrazolo[1,5-a]pyridine-3-carbonitnile]
IC50 (VEGFR2): 13 nM

COc1ccc(CN2CCN(c3ccc(-c4cc(N5CCOCC5)cn5ncc(C#N)c45)cn3)CC2)cn1 [Example 19, 6-(morpholino-1-yl)-4-(6-(4-((6-methoxypyridin-3-yl)methyl)piperazin-1-yl)pyridin-3-yl)pyrazolo[1,5-a]pyridine-3-carbonitrile]
IC50 (VEGFR2): 94 nM | IC50 (RET^WT): 0.636 nM

COc1ccc(CN2C3CC2CN(c2ccc(-c4cc(N5CC(OC)C5)cn5ncc(C#N)c45)cn2)C3)cn1 [Example 27, 6-(3-methoxyazetidin-1-yl)-4-(6-(6-((6-methoxypyridin-3-yl)methyl)-3,6-diazabicyclo[3.1.1]heptan-3-yl)pyridin-3-yl)pyrazolo[1,5-a]pyridine-3-carbonitrile]
IC50 (VEGFR2): 2.28 nM | IC50 (RET^WT): 0.536 nM

CC(C)(O)COc1cc(-c2ccc(N3CC4CC(C3)N4Cc3ccc(S(C)(=O)=O)cc3)nc2)c2c(C#N)cnn2c1 [Example 38, 6-(2-hydroxy-2-methylpropoxy)-4-(6-(6-(4-(methylsulfonyl)benzyl)-3,6-diazabicyclo[3.1.1]heptan-3-yl)pyridin-3-yl)pyrazolo[1,5-a]pyridine-3-carbonitrile]
IC50 (VEGFR2): 40.3 nM | IC50 (RET^WT): 0.419 nM

CS(=O)(=O)c1ccc(CN2CCN(c3ccc(-c4cc(N5CC(C#N)C5)cn5ncc(C#N)c45)cn3)CC2)cc1 [Example 40, 6-(3-cyanoazetidin-1-yl)-4-(6-(4-(4-(methylsulfonyl)benzyl)piperazin-1-yl)pyridin-3-yl)pyrazolo[1,5-α]pyridin-3-carbonitrile]
IC50 (RET^WT): 1.31 nM

CCn1cc(-c2cc(-c3ccc(N4CC5CC(C4)N5Cc4ccc(S(C)(=O)=O)cc4)nc3)c3c(C#N)cnn3c2)cn1 [Example 44, 6-(1-ethyl-1Hpyrazol-4-yl)-4-(6-(6-(4-(methylsulfonyl)benzyl)-3,6-diazabicyclo[3.1.1]heptan-3-yl)pyridin-3 yl)pyrazolo[1,5-a]pyridine-3-carbonitrile]
IC50 (RET^WT): 0.247 nM

CS(=O)(=O)c1ccccc1CN1CCN(c2ccc(-c3cc(-c4cnn(C(F)F)c4)cn4ncc(C#N)c34)cn2)CC1 [Example 48, 6-(1-difluoromethyl-1Hpyrazol-4-yl)-4-(6-(4-(2-(methylsulfonyl)benzyl)piperazin-1-yl)pyridin-3-yl)pyrazolo[1,5-a]pyridine-3-carbonitrile]
IC50 (VEGFR2): 10.1 nM | IC50 (RET^WT): 0.57 nM

CS(=O)(=O)c1ccc(CN2CCN(c3ccc(-c4cc(-c5cnn(C(F)F)c5)cn5ncc(C#N)c45)cn3)CC2)cc1 [Example 49, 6-(1-difluoromethyl-1Hpyrazol-4-yl)-4(6-(4-(4-(methylsulfonyl)benzyl)piperazin-1-yl)pyridin-3-yl)pyrazolo[1,5-a]pyridine-3-carbonitrile]
IC50 (VEGFR2): 18.2 nM | IC50 (RET^WT): 0.94 nM

CSc1ccc(CN2C3CC2CN(c2ccc(-c4cc(-c5cnn(C)c5)cn5ncc(C#N)c45)cn2)C3)cn1 [Example 50, 6-(1-methyl-1Hpyrazol-4-yl)-4-(6-(6-((6-(methylthio)pyridin-3-yl)methyl)-3,6-diazabicyclo[3.1.1]heptan-3-yl)pyridin-3-yl)pyrazolo[1,5-a]pyridine-3-carbonitrile]
IC50 (RET^WT): 0.181 nM

CSc1cccc(CN2CCN(c3ccc(-c4cc(-c5cnn(C)c5)cn5ncc(C#N)c45)cn3)CC2)n1 [Example 51, 6-(1-methyl-1Hpyrazol-4-yl)-4-(6-(4-((6-(methylthio)pyridin-2-yl)methyl)piperazin-1-yl)pyridin-3-yl)pyrazolo[1,5-a]pyridine-3-carbonitrile]
IC50 (VEGFR2): 6.2 nM | IC50 (RET^WT): 0.328 nM

CN(C)C(=O)Cn1cc(-c2cc(-c3ccc(N4CCN(Cc5ccc(S(C)(=O)=O)cc5)CC4)nc3)c3c(C#N)cnn3c2)cn1 [Example 54]
IC50 (VEGFR2): 10.1 nM | IC50 (RET^WT): 1.07 nM

Cn1cc(-c2cc(-c3ccc(N4CC5CCC(C4)N5Cc4ccc(S(C)(=O)=O)cc4)nc3)c3c(C#N)cnn3c2)cn1 [Example 57, 6-(1-methyl-1Hpyrazol-4-yl) 4-(6-(8-(4-(methylsulfonyl)benzyl)-3,8-diazabicyclo[3.2.1]octan-3-yl)pyridin-3-yl)pyrazolo[1,5-a]pyridine-3-carbonitrile]
IC50 (VEGFR2): 8.94 nM

COc1ncc(CN2C3CC2CN(c2ccc(-c4cc(N5CC(C)(O)C5)cn5ncc(C#N)c45)cn2)C3)cn1 [Example 58, 6-(3-hydroxy-3-methylazetidin-1-yl)-4-(6-(6-((2-methoxypyrimidin-5-yl)methyl)-3,6-diazabicyclo[3.1.1]heptan-3-yl)pyridin-3-yl)pyrazolo[1,5-a]pyridine-3-carbonitrile]
IC50 (RET^WT): 1.34 nM

CSc1ccc(CN2C3CC2CN(c2ccc(-c4cc(-c5cnn(C)c5)cn5ncc(C#N)c45)cn2)C3)cc1 [Example 59, 6-(1-methyl-1Hpyrazol-4-yl)-4-(6-(6-(4-(methylthio)benzyl)-3,6-diazabicyclo[3.1.1]heptan-3-yl)pyridin-3-yl)pyrazolo[1,5-a]pyridine-3-carbonitrile]
IC50 (VEGFR2): 0.154 nM | IC50 (RET^WT): 0.066 nM

COC/C=C/C(=O)N1C2CC1CN(c1ccc(-c3cc(-c4cnn(C(F)F)c4)cn4ncc(C#N)c34)cn1)C2 [Example 62, (E)-6-(1-(difluoromethyl)-1Hpyrazol-4-yl)-4-(6-(6-(4-methoxybut-2-enoyl)-3,6-diazabicyclo[3.1.1]heptan-3-yl)pyridin-3-yl)pyrazolo[1,5-a]pyridine-3-carbonitrile]
IC50 (RET^WT): 1.11 nM

CS(=O)(=O)c1ccc(CN2CCN(c3ccc(-c4cc(-c5cnn(C(F)F)c5)cn5ncc(C#N)c45)cn3)CC2)cn1 [Example 63, 6-(1-(difluoromethyl)-1Hpyrazol-4-yl)-4-(6-(4-((6-(methylsulfonyl)pyridin-3-yl)methyl)piperazin-1-yl)pyridin-3-yl)pyrazolo[1,5-a]pyridine-3-carbonitrile]
IC50 (RET^WT): 2.96 nM

CSc1ccc(CN2CCN(c3ccc(-c4cc(-c5cnn(C(F)F)c5)cn5ncc(C#N)c45)cn3)CC2)cn1 [Example 75, 6-(1-(difluoromethyl)-1Hpyrazol-4-yl)-4-(6-(4-((6-(methylthio)pyridin-3-yl)methyl)piperazin-1-yl)pyridin-3-yl) pyrazolo[1,5-a] pyridine-3-carbonitrile]
IC50 (RET^WT): 0.943 nM

CS(=O)(=O)c1ccc(CN2CCN(c3ccc(-c4cc(-c5cnn(C(F)F)c5)cn5ncc(C#N)c45)cn3)CC2)nc1 [Example 80, 6-(1-(difluoromethyl)-1Hpyrazol-4-yl)-4-(6-(4-((5-(methylsulfonyl)pyridin-2-yl)methyl)piperazin-1-yl)pyridin-3-yl) pyrazolo[1,5-a] pyridine-3-carbonitrile]
IC50 (RET^WT): 1.58 nM

CSc1ccc(CN2CCN(c3ccc(-c4cc(-c5cnn(C(F)F)c5)cn5ncc(C#N)c45)cn3)CC2)cc1 [Example 81, 4-(6-(4-(4-(methylthio)benzyl)piperazin-1-yl)pyridin-3-yl)-6-(1-(difluoromethyl)-1Hpyrazol-4-yl)pyrazolo[1,5-a]pyridine-3-carbonitrile]
IC50 (RET^WT): 1.33 nM
